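Where inhibition never reached the appropriate level, the endpoint shown equals the highest concentration tested. Otherwise, values were interpolated linearly from a five-concentration, 48-hour dose response in 96-well plates. At the GI50, growth is halved.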 Calls of active or inactive are those of the source. Rule as the data show it: active = GI50 up to about 1.1 µM and inactive = higher.
What was measured:
Assay in all cases: DTP human tumour cell line panel, 48 h
[1] = system: PC-3
[2] = system: 786-0
[3] = system: OVCAR-4
[4] = system: SK-MEL-5
[5] = system: COLO 205
[6] = system: A549
[7] = system: Malme-3M
[8] = system: SK-MEL-2
[9] = system: UACC-257
[10] = system: T47D
[11] = system: HT-29
[12] = system: EKVX
[13] = system: TK-10
[14] = system: CCRF-CEM
[15] = system: LOX IMVI
[16] = system: HCT-15
[17] = system: UACC-62
[18] = system: SF-295
[19] = system: OVCAR-5
[20] = system: NCI-H226

Structure (SMILES) | GI50 [1] | GI50 [2] | GI50 [3] | GI50 [4] | GI50 [5] | GI50 [6] | GI50 [7] | GI50 [8] | GI50 [9] | GI50 [10] | GI50 [11] | GI50 [12] | GI50 [13] | GI50 [14] | GI50 [15] | GI50 [16] [µM] | GI50 [17] | GI50 [18] | GI50 [19] | GI50 [20]
CC(=O)O[C@H]1C[C@](C)(O)[C@@]23CC([C@@H](OC(=O)C(C)(C)O)[C@@H](OC(C)=O)C2(COC(=O)c2ccccc2)[C@H]1OC(C)=O)C(C)(C)O3 (some centres not stated) | 44 µM (inactive) | > 100 µM (inactive) | > 100 µM (inactive) | 77.6 µM (inactive) | > 100 µM (inactive) | 47.8 µM (inactive) | > 100 µM (inactive) | 86.5 µM (inactive) | > 100 µM (inactive) | > 100 µM (inactive) | > 100 µM (inactive) | > 100 µM (inactive) | > 100 µM (inactive) | 41.1 µM (inactive) | 61.5 µM (inactive) | > 100 | > 100 µM (inactive) | 84.3 µM (inactive) | > 100 µM (inactive) | –
CC(=O)n1nc(-c2ccc3ccccc3c2)nc1C | 62.2 µM (inactive) | > 100 µM (inactive) | 91 µM (inactive) | 36.1 µM (inactive) | > 100 µM (inactive) | 81.1 µM (inactive) | > 100 µM (inactive) | > 100 µM (inactive) | 83.9 µM (inactive) | 52.4 µM (inactive) | > 100 µM (inactive) | 63 µM (inactive) | > 100 µM (inactive) | 83.8 µM (inactive) | 57.3 µM (inactive) | 35.6 | 89.9 µM (inactive) | 52.8 µM (inactive) | > 100 µM (inactive) | –
BrC(=C(c1ccc(OC2CCCCO2)cc1)c1ccc(OC2CCCCO2)cc1)c1ccccc1 (configuration not stated) | > 100 µM (inactive) | > 100 µM (inactive) | > 100 µM (inactive) | – | > 100 µM (inactive) | > 100 µM (inactive) | > 100 µM (inactive) | – | > 100 µM (inactive) | > 100 µM (inactive) | > 100 µM (inactive) | > 100 µM (inactive) | 28.8 µM (inactive) | > 100 µM (inactive) | > 100 µM (inactive) | > 100 | > 100 µM (inactive) | > 100 µM (inactive) | – | > 100 µM (inactive)
CCn1cc2c(=O)n3ncn(-c4ccc(Br)cc4)c3nc2n1 | > 100 µM (inactive) | 63.2 µM (inactive) | > 100 µM (inactive) | > 100 µM (inactive) | > 100 µM (inactive) | > 100 µM (inactive) | > 100 µM (inactive) | > 100 µM (inactive) | > 100 µM (inactive) | > 100 µM (inactive) | > 100 µM (inactive) | > 100 µM (inactive) | 78.2 µM (inactive) | > 100 µM (inactive) | – | 93.8 | > 100 µM (inactive) | > 100 µM (inactive) | > 100 µM (inactive) | > 100 µM (inactive)
Clc1ccc(C2Nc3ccccc3C3=NCCN32)cc1 (configuration not stated) | 55.3 µM (inactive) | 18.5 µM (inactive) | 30.7 µM (inactive) | 15.7 µM (inactive) | 13 µM (inactive) | 32.3 µM (inactive) | 15.4 µM (inactive) | 19.1 µM (inactive) | 17.5 µM (inactive) | 15.6 µM (inactive) | 11.4 µM (inactive) | 25.6 µM (inactive) | 16.8 µM (inactive) | 28.4 µM (inactive) | 17.2 µM (inactive) | 34.3 | 16.9 µM (inactive) | 14.8 µM (inactive) | 29.7 µM (inactive) | –
CCN(CC)C(=S)SC(C(=O)Nc1nnc(-c2ccc(Cl)cc2)o1)c1ccccc1 (configuration not stated) | 3.35 µM (inactive) | 10 µM (inactive) | 3.08 µM (inactive) | 4.6 µM (inactive) | 4.06 µM (inactive) | 17.9 µM (inactive) | 13.8 µM (inactive) | 20.6 µM (inactive) | 31.6 µM (inactive) | 6.53 µM (inactive) | 4.86 µM (inactive) | 8.47 µM (inactive) | 23.5 µM (inactive) | 2.84 µM (inactive) | 15.3 µM (inactive) | 3.81 | 7.35 µM (inactive) | 12.8 µM (inactive) | 6.41 µM (inactive) | –

Reference: ChEMBL document CHEMBL1201862, “PubChem BioAssay data set” (2004)
